Reference: patent EP1044000B1, “COMBINATION THERAPY FOR THE TREATMENT OF AIDS” (MERCK & CO., INC., priority 1997, dated 1999)

How the values were obtained:
CYPIIIA4 = CYPIIIA4 (Homo sapiens, UniProt P08684); test: in vitro inhibition of CYPIIIA4; assay type: in vitro ADME
[1] = Pharmacokinetic study of Compound A alone and in combination with Indinavir in healthy human males (Example 11); assay type: in vivo; conditions: for Cmax / Tmax / AUC / concentration at 8 h / concentration at 12 h / concentration at 24 h: male, human, plasma, po, fasted; for Cmax / Tmax: arithmetic mean; for AUC: arithmetic mean (CV %); for concentration at 8 h: plasma 8 hours after dosing, read-out: C8 hrs; for concentration at 12 h: plasma 12 hours after dosing, read-out: C12 rs; for concentration at 24 h: plasma 24 hours after dosing, read-out: C24 hrs
Method: A double-blind, single-rising dose, alternating two-panel, four-period, placebo-controlled study was conducted for Compound A alone and in combination with Indinavir in healthy adult males in the fasted state. […] All of the doses of Compound A were administered as the sulfate salt form of Compound A. All of the Compound A doses were oral suspensions of the sulfate salt form in sterile water, except that the 600-mg doses administered to Panel B in the fourth period were tablets. Indinavir was administered in the form of CRIXIVAN® capsules. The safety of the subjects was monitored prior and subsequent to dosing by clinical adverse event reporting, measurement of vital signs, physical examinations, blood and urine laboratory safety tests, and ECGs. Plasma concentrations of Compound A were determined predose and at 0.5, 1, 1.5, 2, 3, 4, 6, 8, 12, 16, 20, 24, 30, 36 and 48 hours following each single dose in each period, using a reverse-phase HPLC column switching method with fluorescence detection.

[2] = Pharmacokinetic study of Compound A in combination with Indinavir with and without fasting (Example 12); assay type: in vivo; conditions: male, human, plasma, 600 mg Compound A (tablets) + 666 mg IDV (Indinavir), n=7; for concentration at 8 h / concentration at 12 h / concentration at 24 h: oral; for concentration at 8 h: plasma 8 hours after dosing, read-out: C8 hrs; for concentration at 12 h: plasma 12 hours after dosing, read-out: C12 hrs; for concentration at 24 h: plasma 24 hours after dosing, read-out: C24 hrs; for Cmax / Tmax / AUC: po, single oral dose; for Cmax / Tmax: arithmetic mean; for AUC: arithmetic mean (CV %)
Method: All of the subjects received the regimen once in the fasted state and once with a high-fat breakfast. The two single-dose treatments (fasted, fed) were administered in randomized crossover fashion, separated by one week. For treatments with food a breakfast consisting of two eggs, two strips of bacon, toast with two pats of butter (2 x 12.5 g), 120 g of fried potatoes and 240 ml of whole milk were consumed in no more than 15 minutes, and the test medication was administered within 5 minutes after completion of the breakfast. […] All of the doses of Compound A were administered as the sulfate salt form of Compound A. All of the Compound A doses were tablets containing 200 mg of Compound A. Other ingredients in the tablets included microcrystalline cellulose (Avicel PH 101), mannitol SD 200, croscarmellose sodium, hydroxypropyl cellulose and magnesium stearate. The tablets were film coated with a suspension of hydroxypropyl methylcellulose, hydroxypropyl cellulose and titanium dioxide. The safety of the subjects was monitored prior and subsequent to dosing by clinical adverse event reporting, measurement of vital signs, physical examinations, blood and urine laboratory safety tests, and ECGs. Plasma concentrations of Compound A were determined predose and at 0.5, 1, 1.5, 2, 3, 4, 6, 8, 12, 16, 20, 24, 30, 36 and 48 hours following each single dose in each period, using a reverse-phase HPLC column switching method with fluorescence detection.

[3] = 200 mg of Compound A with 800 mg of Indinavir relative to 200 mg of Compound A alone (Table 3 vs Table 2)
[4] = 200 mg Compound A + 800 mg IDV (Indinavir) co-administered, single oral dose, n=6
[5] = 200 mg Compound A + 1200 mg IDV (Indinavir) co-administered, single oral dose, n=6
[6] = 400 mg Compound A + 800 mg IDV (Indinavir) co-administered, single oral dose, n=6
[7] = 600 mg Compound A + 800 mg IDV (Indinavir) co-administered, single oral dose, n=8
[8] = 600 mg, 600 mg (tablets) single oral dose, sulfate salt, n=8
[9] = 600 mg, 600 mg single oral dose, suspension of sulfate salt, n=8
[10] = 1600 mg, 1600 mg single oral dose, suspension of sulfate salt, n=6
[11] = 2000 mg, 2000 mg single oral dose, suspension of sulfate salt, n=8

Chain of CYPIIIA4 (P08684 whole entry): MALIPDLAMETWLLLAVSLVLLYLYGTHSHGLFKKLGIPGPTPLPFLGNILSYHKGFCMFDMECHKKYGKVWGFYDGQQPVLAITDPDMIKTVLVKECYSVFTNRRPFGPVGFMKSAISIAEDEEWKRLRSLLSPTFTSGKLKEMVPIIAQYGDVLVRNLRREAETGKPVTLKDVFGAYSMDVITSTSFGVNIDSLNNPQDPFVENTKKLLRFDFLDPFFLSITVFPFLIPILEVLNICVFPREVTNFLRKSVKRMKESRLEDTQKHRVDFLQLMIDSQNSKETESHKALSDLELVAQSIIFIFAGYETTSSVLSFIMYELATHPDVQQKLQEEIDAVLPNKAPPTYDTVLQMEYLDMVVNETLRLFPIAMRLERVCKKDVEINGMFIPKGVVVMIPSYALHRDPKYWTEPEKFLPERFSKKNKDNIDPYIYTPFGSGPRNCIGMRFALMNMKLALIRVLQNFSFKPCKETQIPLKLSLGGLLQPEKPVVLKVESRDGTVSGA

Q: For `CC(C)(C)NC(=O)[C@@H]1CN(Cc2cc3ccccc3o2)CCN1C[C@@H](O)C[C@@H](Cc1ccccc1)C(=O)N[C@H]1c2ccccc2C[C@H]1O` [Compound A, N-(2(R)-hydroxy-1(S)-indanyl)-2(R)-phenylmethyl-4-(S)-hydroxy-5-(1-(4-(2-benzo[b]furanylmethyl)-2(S)-N'-(t-butylcarboxamido)-piperazinyl))-pentaneamide], which IC50 (CYPIIIA4) is on record?
A: 30 µM

Q: And the “AUC of Compound A higher for co-administration with Indinavir relative to Compound A alone” value [1, 3]?
A: about 30 x

Q: What about the “C8 hrs higher for co-administration with Indinavir relative to Compound A alone” value [1, 3] of the same molecule?
A: ~46 x

Q: And the “Cmax higher for co-administration with Indinavir relative to Compound A alone” value [1, 3]?
A: about 19 x

Q: And the “AUC higher than for administration of Compound A alone” value ([1]; 600 mg of Compound A in combination with 800 mg of Indinavir versus Compound A alone)?
A: about 18 fold

Q: What about the Cmax [1, 4] of the same molecule?
A: 1580 nM

Q: And the Tmax [1, 4]?
A: 2.2 h

Q: And the AUC [1, 4]?
A: 7.45 µM·h

Q: What about the concentration at 8 h [1, 4] of the same molecule?
A: 232 nM

Q: And the concentration at 12 h [1, 4]?
A: 70 nM

Q: What about the concentration at 24 h [1, 4] of the same molecule?
A: 8 nM

Q: What about the Cmax [1, 5] of the same molecule?
A: 1560 nM

Q: What about the Tmax [1, 5] of the same molecule?
A: 2.3 h

Q: And the AUC [1, 5]?
A: 9.22 µM·h

Q: And the concentration at 8 h [1, 5]?
A: 416 nM

Q: What about the concentration at 12 h [1, 5] of the same molecule?
A: 107 nM

Q: What about the concentration at 24 h [1, 5] of the same molecule?
A: 10 nM

Q: And the Cmax [1, 6]?
A: 2350 nM

Q: What about the Tmax [1, 6] of the same molecule?
A: 2.5 h

Q: What about the AUC [1, 6] of the same molecule?
A: 12.2 µM·h

Q: And the concentration at 8 h [1, 6]?
A: 399 nM

Q: What about the concentration at 12 h [1, 6] of the same molecule?
A: 124 nM

Q: And the concentration at 24 h [1, 6]?
A: 20 nM

Q: And the Cmax [1, 7]?
A: 3880 nM

Q: And the Tmax [1, 7]?
A: 3.3 h

Q: What about the AUC [1, 7] of the same molecule?
A: 25.2 µM·h

Q: And the concentration at 8 h [1, 7]?
A: 1190 nM

Q: And the concentration at 12 h [1, 7]?
A: 352 nM

Q: What about the concentration at 24 h [1, 7] of the same molecule?
A: 65 nM

Q: What about the Cmax [1, 8] of the same molecule?
A: 211 nM

Q: What about the Tmax [1, 8] of the same molecule?
A: 1.5 h

Q: What about the AUC [1, 8] of the same molecule?
A: 1.42 µM·h

Q: What about the concentration at 8 h [1, 8] of the same molecule?
A: 50 nM

Q: And the concentration at 12 h [1, 8]?
A: 38 nM

Q: And the concentration at 24 h [1, 8]?
A: 17 nM

Q: What about the Cmax [1, 9] of the same molecule?
A: 208 nM

Q: And the Tmax [1, 9]?
A: 1.4 h

Q: What about the AUC [1, 9] of the same molecule?
A: 1.41 µM·h

Q: And the concentration at 8 h [1, 9]?
A: 55 nM

Q: And the concentration at 12 h [1, 9]?
A: 39 nM

Q: What about the concentration at 24 h [1, 9] of the same molecule?
A: 13 nM

Q: And the Cmax [1, 10]?
A: 613 nM

Q: And the Tmax [1, 10]?
A: 2 h

Q: And the AUC [1, 10]?
A: 4.72 µM·h

Q: What about the concentration at 8 h [1, 10] of the same molecule?
A: 163 nM

Q: What about the concentration at 12 h [1, 10] of the same molecule?
A: 93 nM

Q: And the concentration at 24 h [1, 10]?
A: 46 nM

Q: What about the Cmax [1, 11] of the same molecule?
A: 1270 nM

Q: And the Tmax [1, 11]?
A: 2.5 h

Q: And the AUC [1, 11]?
A: 10.4 µM·h

Q: And the concentration at 8 h [1, 11]?
A: 444 nM

Q: What about the concentration at 12 h [1, 11] of the same molecule?
A: 250 nM

Q: And the concentration at 24 h [1, 11]?
A: 105 nM

Q: And the concentration at 8 h ([2]; fasted)?
A: 583 nM

Q: And the concentration at 12 h ([2]; fasted)?
A: 188 nM

Q: And the concentration at 24 h ([2]; fasted)?
A: 37 nM

Q: What about the concentration at 8 h ([2]; fed (high-fat breakfast)) of the same molecule?
A: 1320 nM

Q: And the concentration at 12 h ([2]; fed (high-fat breakfast))?
A: 433 nM

Q: What about the concentration at 24 h ([2]; fed (high-fat breakfast)) of the same molecule?
A: 58 nM

Q: What about the Cmax ([2]; fasted) of the same molecule?
A: 2.92 µM

Q: What about the Tmax ([2]; fasted) of the same molecule?
A: 2.6 h

Q: And the AUC ([2]; fasted)?
A: 15.7 µM·h

Q: And the Cmax ([2]; fed (high-fat breakfast))?
A: 4.23 µM

Q: What about the Tmax ([2]; fed (high-fat breakfast)) of the same molecule?
A: 3.7 h

Q: What about the AUC ([2]; fed (high-fat breakfast)) of the same molecule?
A: 25.3 µM·h
